These results are taken from publication PMC6629785, “Synthesis and Pharmacological Evaluation of a Novel Peptide Based on Anemonia sulcata BDS-I Toxin as a New KV3.4 Inhibitor Exerting a Neuroprotective Effect Against Amyloid-β Peptide” (Frontiers in Chemistry, 2019).

Ends that are not written are not given here.

This assay has as its system caspase-3 activation. The experiment in a line: Western blot of cleaved (activated) caspase-3 after Aβ1−42 exposure. Type of assay: cell-based, Rat. Particulars: peptide 100 nM, 30 min pre-treatment; Aβ1−42 oligomers 5 μM, 24 h; western blot densitometry, 3 sessions. Here is the method: Rat pheochromocytoma cells (PC-12 cells) were grown as previously described (Pannaccione et al., [2005], [2007]). For all the experiments, cells were seeded at low density on glass cover-slips coated with poly-L-lysine (50 μg/ml). Differentiation of PC-12 cells was achieved by treatment with neuronal growth factor (NGF) 2.5 S (50 ng/ml) for 7–9 days (Greene and Tischler, [1976]). For electrophysiological experiments, cells were seeded on glass cover-slips and used after 7–9 days of NGF. […]
NGF-differentiated PC-12 and CHO cells were washed in phosphate buffered saline (PBS) and collected by gentle scraping in ice-cold RIPA buffer containing in mM: 50 Tris pH 7.4, 100 NaCl, 1 EGTA, 1 PMSF, 1 sodium orthovanadate, 1 NaF, 0.5% NP-40, and 0.2% SDS supplemented with protease inhibitor cocktail II. […] The protein content of resulting supernatant was determined using the Bradford reagent. […]
The peptide used in our study was synthesized by INBIOS (Pozzuoli, Naples, Italy) using the Aβ1−42 sequence of human APP [UniProtKB-P05067 (A4_HUMAN)]. The purity of the peptide was assessed by high-performance liquid chromatography (>95% pure) and the amino acid composition was verified by mass spectrometry. […] The pre-aggregated preparation of Aβ oligomers was analyzed in SDS-PAGE using the rabbit monoclonal anti-Aβ on precast gels 4-20%. […]
(In western blotting, separated proteins are transferred to a membrane and probed.)

Consider AAPAFASG [BDS-I[1-8]], for which the “effect on Aβ1−42-induced caspase-3 activation” value is reported as “prevented”.

In the case of H-GSAFAPAA-OH [BDS-I[1-8scr]], the “effect on Aβ1−42-induced caspase-3 activation” value is “did not”.
